What all share (format): cell-based
The target of experiment [1] is T1, Human GPR120 short form (Homo sapiens, UniProt Q5NUL3).
T1 construct: expressed in transfected cells
T1 sequence (Q5NUL3 1-361): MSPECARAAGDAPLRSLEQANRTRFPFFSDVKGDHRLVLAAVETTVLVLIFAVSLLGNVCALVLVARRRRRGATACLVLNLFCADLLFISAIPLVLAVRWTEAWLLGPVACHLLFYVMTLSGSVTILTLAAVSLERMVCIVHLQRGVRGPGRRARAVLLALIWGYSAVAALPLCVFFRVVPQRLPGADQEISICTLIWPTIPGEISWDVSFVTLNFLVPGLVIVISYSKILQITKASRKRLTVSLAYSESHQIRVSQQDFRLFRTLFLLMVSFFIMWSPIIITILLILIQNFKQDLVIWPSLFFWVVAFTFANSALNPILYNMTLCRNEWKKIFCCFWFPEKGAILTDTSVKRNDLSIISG
Put plainly: Human GPR120 calcium flux assay, Procedure Calcium B (4200 cells/well). In a few lines: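 Agonist EC50 came from a four-parameter fit of RFU (Fmax−Fmin) read over 300 s on FLIPR. Cells were HEK293 stably transfected with human GPR120 (NM_001195755.1) at 4200 per well, serum-starved 1 h and loaded with Fluo-4 NW dye with probenecid before ligand addition.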
Background: Calcium assays in cells follow changes in intracellular calcium, usually with a dye or a luminescent sensor.

The target of experiment [2] is T1, Human GPR120 short form. Put plainly: Human GPR120 calcium flux assay, Procedure Calcium A (2500 cells/well). The source says:
Human GPR120 in Calcium Flux Assay
This in vitro assay serves to assess test compound agonist activity against the short splice variant (SVS with Accession number NM_001195755.1 confirmed by sequencing data) of the GPR120 receptor. The Human Short splice variant #2 (NM_001195755.1) is missing an in-frame coding exon compared to variant 1 (the Human Long splice variant NM_181745.3), resulting in a shorter isoform (GPR120-S) lacking a 16 aa protein segment compared to isoform GPR120-L. The assay platform utilizes HEK-293 cells stably transfected to express the Human GPR120 short form. These cells are first loaded with the Ca^+2 sensitive dye, Fluo-4 NW. Upon stimulation, intracellular released Ca^+2 can bind to the dye and alter its fluorescence intensity. This increase in fluorescence signal, and thus the flux in intracellular [Ca^2+], is detected and quantitated by fluorescence imaging using a FLIPR reader. The effect of the agonist is measured as a function of concentration and used to calculate an EC50 based upon a response curve.
In this procedure 2500 cells/well were employed.
A Human GPR120 clone (Genbank accession number NM_001195755.1) was placed into the pcDNA3.1 mammalian expression vector carrying the neomycin resistance gene. A stable mammalian cell was generated by placing the above clone into a HEK293 background. Clonal cells responding to long chain fatty acids had expression levels of GPR120 confirmed by RT-qPCR. Human HEK-GPR120 cells were cultured in Dulbecco's Modified Eagle's Medium (DMEM)/F12 medium supplemented with 10% fetal bovine serum (FBS), 1% L-Glutamine and 1% penicillin/streptomycin and 0.5 mg/ml G-418. Cells were split 2 times a week to keep the cells in the log-phase growth.
In preparation for the assay, HEK cells stably transfected with Human GPR120 (2.5K cells per well in 25 uL growth medium) were seeded into 384-well plates and then incubated overnight (37° C., 5% CO2). The next day, the media was changed to 20 μL assay buffer and the cell starved for 1 h at 37° C. The dye loading solution (2× dye) was prepared using 10 mL assay buffer, 100 μL of 250 mM probenecid, 1 bottle of Component A, and 20 μl of dye in DMSO. Twenty μL of the 2× dye loading buffer was then added to each well. The plates were incubated at 37° C. for 30 min, then at room temperature for an additional 15 minutes, before performing the assay on FLIPR.
The assay was performed on a FLIPR plate reader using the following parameters. Baseline was read for 10 seconds at 1 sec intervals. The program was set to transfer 10 μL of ligand from compound plate to cell plate after baseline reading. Aspiration was executed at: 10 μL/sec speed, 4.6 μL height, Dispensing was executed at: 30 μL/sec speed, 45 μL height. After compound addition, each well was read for 300 sec, with measurements collected at 1 sec intervals.
The kinetic data from the FLIPR was based upon a 5 minute window for data collection. The fluorescence of each sample well was used for individual calculations of a normalized RFU value, which was defined as maximum response minus the minimum response. The normalized fluorescence reading (RFU) was calculated as follows: RFU=Fmax−Fmin
The Fitting Equation was: Y=Bottom+(Top-Bottom)/(1+10^((Log EC50−X)*HillSlope)), where X is the log of the concentration and Y is the response.

The target in another experiment is T2, human GPR40 (Homo sapiens, UniProt O14842).
T2 construct: expressed in transfected cells
Put plainly: GPR40 calcium flux assay, human GPR40. Conditions: HEK293 cells stably expressing GPR40; table does not say human or rat. In a few lines:
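Cells preincubated 1 h at 37° C. in HBSS, 20 mM HEPES, 0.1% BSA, then Fluo 8 calcium dye 30 min at 37° C. and 15 min at room temperature.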

T2 sequence (O14842 whole entry): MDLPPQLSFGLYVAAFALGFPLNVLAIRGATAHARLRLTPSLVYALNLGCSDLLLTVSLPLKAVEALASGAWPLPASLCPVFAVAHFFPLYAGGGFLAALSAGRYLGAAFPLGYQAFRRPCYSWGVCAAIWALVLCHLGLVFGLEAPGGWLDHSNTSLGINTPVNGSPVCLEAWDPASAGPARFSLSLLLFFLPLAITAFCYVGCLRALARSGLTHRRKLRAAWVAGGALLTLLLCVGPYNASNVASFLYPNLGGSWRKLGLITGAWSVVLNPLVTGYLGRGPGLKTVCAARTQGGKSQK

With `O=C(O)CCc1ccc(OCC2=C(c3ccccc3)CCC2)cc1` [Compound 19, 3-(4-((2-phenylcyclopent-1-en-1-yl)methoxy)phenyl)Propanoic Acid], the EC50 (as a rule, the midpoint of the concentration-response curve) is 0.603 µM at Human GPR120 short form [1], 1.93 µM on Human GPR120 short form [2] and above 5 µM at human GPR40.
For `COc1ccc(C2=C(COc3ccc(CCC(=O)O)c(C)c3C)CCC2)cc1` [Compound 21, 3-(4-((2-(4-methoxyphenyl)cyclopent-1-en-1-yl)methoxy)-2,3-dimethylphenyl)Propanoic Acid], the EC50 on Human GPR120 short form [2] is above 20 µM; on human GPR40, above 5 µM.
The like results for `Cc1c(CCC(=O)O)ccc(OCC2=C(c3ccsc3)CCC2)c1C` [Compound 22, 3-(2,3-dimethyl-4-((2-(thiophen-3-yl)cyclopent-1-en-1-yl)methoxy)phenyl)Propanoic Acid] were, in that order, above 20 µM and above 5 µM.
`O=C(O)CCc1ccc(OCC2=C(c3ccc(Cl)cc3)CCC2O)c(F)c1F` (stereo not drawn) [Compound 45]: the EC50 on Human GPR120 short form [2] is above 20 µM; at human GPR40 it was above 5 µM.
`Cc1c(CCC(=O)O)ccc(OCC2=C(c3ccc(Cl)cc3)CCC2(O)C(F)(F)F)c1C` (stereo not drawn) [Compound 69, 3-[4-[[2-(4-chlorophenyl)-5-hydroxy-5-(trifluoromethyl)cyclopenten-1-yl]methoxy]-2,3-dimethyl-phenyl]Propanoic Acid]: the results for the EC50 on Human GPR120 short form [1], on Human GPR120 short form [2] and at human GPR40 were 2.46 µM, above 5 µM and above 5 µM, respectively.
For the compound `Cc1c(CCC(=O)O)ccc(OCC2=C(c3ccc(S(C)(=O)=O)cc3)CCC2)c1C` [Compound 74, 3-[2,3-dimethyl-4-[[2-(4-methylsulfonylphenyl)cyclopenten-1-yl]methoxy]phenyl]Propanoic Acid], the results for the EC50 on Human GPR120 short form [2] and on human GPR40 were above 20 µM and above 10 µM, respectively.
As for `Cc1ccc(C2=C(COc3ccc(CCC(=O)O)c(F)c3F)CCC2)cc1[N+](=O)[O-]` [Compound 92, 3-(2,3-difluoro-4-((2-(4-methyl-3-nitrophenyl)cyclopent-1-en-1-yl)methoxy)phenyl)Propanoic Acid], the EC50 was 0.373 µM on Human GPR120 short form [1], 1.26 µM at Human GPR120 short form [2] and above 5 µM on human GPR40.
For `Cc1c(CCC(=O)O)ccc(OCC2=C(c3cc(Cl)cc(Cl)c3)CCC2)c1C` [Compound 112, 3-[4-[[2-(3,5-dichlorophenyl)cyclopenten-1-yl]methoxy]-2,3-dimethyl-phenyl]Propanoic Acid′], the EC50 is 3.07 µM at Human GPR120 short form [1], 2.46 µM on Human GPR120 short form [2] and above 5 µM on human GPR40.
In the case of `COc1cc(C2=C(COc3ccc(CCC(=O)O)c(C)c3C)CCC2)ccc1C` [Compound 113, 3-(4-((2-(3-methoxy-4-methylphenyl)cyclopent-1-en-1-yl)methoxy)-2,3-dimethylphenyl)Propanoic Acid], the EC50 on Human GPR120 short form [2] and at human GPR40 was above 5 µM each time.
Turning to `Cc1c(CCC(=O)O)ccc(OCC2=C(c3cccc(N(C)C)c3)CCC2)c1C` [Compound 114, 3-[4-[[2-[3-(dimethylamino)phenyl]cyclopenten-1-yl]methoxy]-2,3-dimethyl-phenyl]Propanoic Acid], the EC50 on Human GPR120 short form [2] and on human GPR40 was above 5 µM in each case.
As for `Cc1ccc(C2=C(COc3ccc(CCC(=O)O)c(C)c3C)CCC2)cc1[N+](=O)[O-]` [Compound 115, 3-(2,3-dimethyl-4-((2-(4-methyl-3-nitrophenyl)cyclopent-1-en-1-yl)methoxy)phenyl)Propanoic Acid], the EC50 at Human GPR120 short form [1] was 0.852 µM; at Human GPR120 short form [2], 1.12 µM; on human GPR40, above 5 µM.
With `Cc1cc(OCC2=C(c3ccc(Cl)cc3)CCC2)cc(C)c1CCC(=O)O` [Compound 119, 3-(4-((2-(4-chlorophenyl)cyclopent-1-en-1-yl)methoxy)-2,6-dimethylphenyl)Propanoic Acid], the EC50 at Human GPR120 short form [1] is 0.327 µM; on Human GPR120 short form [2], 0.895 µM; at human GPR40, above 5 µM.
The like results for `Cc1c(CCCC(=O)O)ccc(OCC2=C(c3ccc(Cl)cc3)CCC2)c1C` [Compound 127, 4-[4-[[2-(4-chlorophenyl)cyclopenten-1-yl]methoxy]-2,3-dimethyl-phenyl]Butanoic Acid] were, in that order, 0.668 µM, 2.78 µM and above 5 µM.
Take `CCCc1ccc(C2=C(COc3ccc(CCC(=O)O)c(C)c3C)CCC2)cc1` [Compound 140, 3-[2,3-dimethyl-4-[[2-(4-propylphenyl)cyclopenten-1-yl]methoxy]phenyl]Propanoic Acid]: the EC50 at Human GPR120 short form [2] and on human GPR40 was above 5 µM in each case.
For `Cc1c(CCC(=O)O)ccc(OCC2=C(c3ccc(C#N)cc3)CCC2)c1C` [Compound 146, 3-[4-[[2-(4-cyanophenyl)cyclopenten-1-yl]methoxy]-2,3-dimethyl-phenyl]Propanoic Acid], the EC50 at Human GPR120 short form [1] is 0.208 µM; at Human GPR120 short form [2], 1.56 µM; on human GPR40, above 5 µM.
Consider `CCOc1ccc(C2=C(COc3ccc(CCC(=O)O)c(C)c3C)CCC2)cc1` [Compound 151, 3-[4-[[2-(4-ethoxyphenyl)cyclopenten-1-yl]methoxy]-2,3-dimethyl-phenyl]Propanoic Acid], for which the EC50 at Human GPR120 short form [2] and at human GPR40 was above 5 µM throughout.
`Cc1c(CCC(=O)O)ccc(OCC2=C(c3ccc(Cl)c(F)c3)CCC2)c1C` [Compound 157, 3-(4-((2-(4-chloro-3-fluorophenyl)cyclopent-1-en-1-yl)methoxy)-2,3-dimethylphenyl)Propanoic Acid]: the EC50 on Human GPR120 short form [1] was 0.067 µM; on Human GPR120 short form [2], 0.097 µM; at human GPR40 it was above 5 µM.
On to `CC(=O)Nc1ccc(C2=C(COc3ccc(CCC(=O)O)c(C)c3C)CCCC2)cc1` [Compound 495, 3-[4-[[2-(4-acetamidophenyl)cyclohexen-1-yl]methoxy]-2,3-dimethyl-phenyl]Propanoic Acid], for which the EC50 at Human GPR120 short form [2] and on human GPR40 was above 5 µM throughout.
With `Cc1c(CCC(=O)O)ccc(OCC2=C(c3ccc([S+](C)[O-])cc3)CCCC2)c1C` (stereo not drawn) [Compound 507, 3-[2,3-dimethyl-4-[[2-(4-methylsulfinylphenyl)cyclohexen-1-yl]methoxy]phenyl]Propanoic Acid], the results for the EC50 at Human GPR120 short form [2] and on human GPR40 were above 5 µM and above 10 µM, respectively.
As to `Cc1c(CCC(=O)O)ccc(OCC2=C(c3ccc(S(C)(=O)=O)cc3)CCCC2)c1C` [Compound 515, 3-[2,3-dimethyl-4-[[2-(4-methylsulfonylphenyl)cyclohexen-1-yl]methoxy]phenyl]Propanoic Acid], the EC50 at Human GPR120 short form [2] and on human GPR40 was above 5 µM throughout.
For `O=C(O)CCc1ccc(OCC2=C(c3ccc(Cl)cc3)CCCC2)cc1` [Compound 517, 3-[4-[[2-(4-chlorophenyl)cyclohexen-1-yl]methoxy]phenyl]Propanoic Acid], the EC50 at Human GPR120 short form [2] and at human GPR40 was above 5 µM in each case.

Source of the values: patent publication US11230526B1, “Cylcoalkenyl derivatives useful as agonists of the GPR120 and/or GPR40 receptors” (Janssen Pharmaceutica NV, priority 2018, dated 2022).
